# Laboratory results published in patent publication US9517221B2, “(2R)-2-propyloctanoic acid for functional brain disease” (ONO PHARMACEUTICAL CO., LTD., priority 2006, dated 2016).
# Key:
# [1] = system: olfactory bulbectomized rats; test: Anxiolytic behavior on elevated plus maze of olfactory bulbectomized rats; assay type: in vivo, rat; conditions: for Time (seconds) stayed on closed arm (mean ± S. E.) / Time (seconds) stayed on open arm (mean ± S. E.): 5 minutes test 1 hour after 8 days administration
# Procedure: SPF rats (Crlj: WI) were used in the test. The animal for olfactory bulbectomy was anesthetized with pentobarbital sodium (Nembutal R Injection, Dainippon Pharmaceutical, dose: 1 mL/kg (intraperitoneal administration)), and the head was fixed using a brain stereotaxic apparatus (ASI Instruments, Inc., NARISHIGE). After incising the head skin, holes are opened at right and left olfactory bulb regions of the skull using a dental drill (manufactured by […]), and the right and left olfactory bulbs were removed by sucking them using an aspirator connected to a tip-removed oral sonde, and the head skin was stitched thereafter. In this connection, in the case of the animals for sham-operation, anesthesia, brain fixation and head skin incision were carried out in the same manner as in the animals for olfactory bulbectomy, holes are opened at right and left olfactory bulb regions of the skull and the head skin was stitched without carrying out suction removal of the olfactory bulbs. The rats after olfactory bulbectomy were put into a series of five stainless steel cages, each of which was partitioned into two parts with an acrylic board for individual rearing space, and individually reared under a dark condition. The rats were subjected to the following tests of (2) and (3). • (a) Sham-operation group (12 animals); • (b) Vehicle control group (12 animals); • (c) 3 mg/kg administration group (12 animals) of (2R)-2-propyloctanoic acid; • (d) 10 mg/kg administration group (12 animals) of (2R)-2-propyloctanoic acid; • (e) 10 mg/kg administration group (12 animals) of Milnacipran hydrochloride. [Drug Administration] As shown below, drug solution or vehicle was administered once a day for 8 days, a total of 8 times, at a respective liquid dose of 5 mL/kg. • (a) Sham-operation group: vehicle (0.1% by volume Tween 80) aqueous solution; • (b) Vehicle control group: vehicle (0.1% by volume Tween 80) aqueous solution; • (c) 3 mg/kg administration group of (2R)-2-propyloctanoic acid: a drug solution in which (2R)-2-propyloctanoic acid was prepared to be 0.6 mg/mL with the vehicle; • (d) 10 mg/kg administration group of (2R)-2-propyloctanoic acid: a drug solution in which (2R)-2-propyloctanoic acid was prepared to be 2.0 mg/mL with the vehicle; • (e) 10 mg/kg administration group of milnacipran hydrochloride: a drug solution in which Milnacipran hydrochloride was prepared to be 2.3 mg/mL with the vehicle (Milnacipran itself is included in 2.0 mg/mL). (2) Examination of the Activity for Hyperemotional Reactivity <Evaluation Method> Evaluation of the anxiolytic behavior on an elevated plus maze was carried out once per animal for 5 minutes from 1 hour to 1 hour and 10 minutes after 8 days of the administration, in accordance with the following method. Each animal was softly put on a platform of elevated plus maze which is described later, toward one of the open arms. Thereafter, behavior of the animal was shot using a video camera (CCD-DC430, SONY) set up the elevated plus maze, and the images were analyzed by a video image behavior analyzing device (Etho Vision, manufactured by Noldus). Additionally, the images from the video camera were recorded and handled as reference data. In this connection, when the animal fell, it was regarded as staying on the open arm, and the animal was quickly returned to the place or the open arm where it was present just before the falling. The evaluation was carried out on the respective items shown by A to H (A: frequency of approach to the open arm, B: frequency of approach to the closed arm, C: frequency of approach to the platform, D: stayed time (second) on the open arm, E: stayed time (second) on the closed arm, F: stayed time (second) on the platform, G: defecation frequency on the open arm, platform and closed arm, and H: urination frequency on the open arm, platform and closed arm), by measuring A to F using the video image behavior analyzing device, and by measuring G and H after completion of the measurement. […]
# SD rats = test: Water-immersion stress-loaded elevated plus maze test (Test Example 1); assay type: in vivo, rat; conditions: oral, 1 hour before test, written in present tense
# Procedure: Two open arms of the same length (50×10 cm) and two closed arms of the same length (50×10 cm) (a wall of 30 cm is set) are set crossing at a right angle at a height of 50 cm from the floor and used as an elevated plus maze apparatus. Constant lighting is effected by attaching white lights to 70 cm over both of the open arms.
# Using a pool (40×30×38 cm) charged with water of 22° C. to a depth of 25 cm, 120 seconds of forced swimming is loaded on SD rats of 7 weeks of age (Charles River Japan). After 9 minutes of the water-immersion stress-loading, the rats are allowed to stand still on a central part of the apparatus, and the behavior of the rats are analyzed for 5 minutes by an automatic behavior tracing analysis system (EthoVision Version 3.0, Noldus Information Technology) to calculate its staying time (second) on the open arms.
# In this connection, rats of the control group are not subjected to the water-immersion stress-loading. Also, a vehicle is orally administered to the vehicle treating group 1 hour before the commencement of the test, and a test drug of various concentrations is administered to the test drug treating group.
# [2] = dose 3 mg/kg once a day for 8 days
# [3] = dose 10 mg/kg once a day for 8 days
smiles,measurement,setting,value
CCCCCC[C@@H](CCC)C(=O)O [(2R)-2-propyloctanoic acid],Time (seconds) stayed on closed arm (mean ± S. E.),[1]; [2],188.7 ± 19.7 s
same,Time (seconds) stayed on open arm (mean ± S. E.),[1]; [2],73.7 ± 17.5 s
same,Time (seconds) stayed on closed arm (mean ± S. E.),[1]; [3],209.4 ± 24.1 s
same,Time (seconds) stayed on open arm (mean ± S. E.),[1]; [3],57.7 ± 22.1 s
same,Anxiolytic behavior versus vehicle control group,"[1]; olfactory bulbectomized rats, elevated plus maze, result in words",inhibited the anxiolytic behavior
same,Staying time on the open arms versus vehicle treating group,SD rats,prolongs the staying time on the open arms
